Reference: paper PMC8071358, “Targeting of the Essential acpP, ftsZ, and rne Genes in Carbapenem-Resistant Acinetobacter baumannii by Antisense PNA Precision Antibacterials” (Biomedicines, 2021)

How the values were obtained:
Type in all cases: cell-based, Acinetobacter baumannii
[1] = test system: ftsZ mRNA in CRAB AC44 strain; assay: Real-time RT-PCR of target mRNA; conditions: AC44, 1 h after treatment, normalised to 16S rRNA, against untreated control
Protocol: (§1) Real time RT-PCR was used to determine the relative expression level of the target gene upon treatment with match BPP-PNA compared to mismatch and untreated controls. The primers for q-PCR were designed to match conserved gene sequences using the AlleleID7 software (Premier Biosoft, San Francisco, CA, USA) (Table S6). Additionally, for more accurate expression of the genes at treatment and untreated conditions, the efficacy of target gene and internal controls primers was calculated by using three consecutive dilutions of the sample cDNA and drawing a standard curve through the slope of the line. […] Statistical analysis was carried out on the gene expression levels normalized to the chosen reference gene (16S rRNA) through −∆Ct analysis. The relative expression of each gene was determined by the 2^−ΔΔCT method. We used the GenEx standard (NormFinder and GeNorm) software (bioMCC, Germany) for analyzing the data.
(§2) An overnight culture of bacteria was diluted 1:100 in MHB medium and was grown with shaking (160 rpm) at 37 °C to reach the OD595 = 0.2. Then, the bacterial culture was treated with different concentrations of BPP-PNA for 1 h and the bacterial cells were harvested by centrifugation and the cell pellet used for RNA extraction.
(§3) Total RNA was isolated using the GeneJET RNA purification kit (ThermoFisher Scientific, Roskilde, Denmark) following the manufacturer’s protocol. RNA samples were treated with DNase for 30 min at 37 °C (Turbo DNA-free kit Ambion/Applied Biosystems, Carlsbad, CA, USA) and then incubated at 72 °C for 5 min to inactivate the DNase. The genomic DNA (gDNA) contamination was checked by polymerase chain reaction (PCR). RNA concentrations were determined by Nanodrop spectrophotometry at 260 nm and purity was checked by determining the absorption ratios at 260/280 nm. Total RNA (0.5 μg) was reverse-transcribed to yield cDNA as template for real-time quantitative PCR using the Quanti Tect reverse transcription kit (Qiagen, Copenhagen, Denmark). The cDNA was diluted 1:50 and used as a template in the reaction. […]

CRAB strain AC4 = assay: BPP-PNA MIC, broth microdilution; conditions: MHB without cation (Oxoid); 37 °C, 18 h
In short: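 Broth microdilution used an overnight culture diluted to about 5 × 10^5 CFU/mL in non-cation-adjusted Mueller Hinton Broth, mixed with 2-fold serial dilutions of BPP-PNA (16 to 0.5 µM in the dilution plate, not final). Plates were shaken at 37 °C for 18 h with OD595 read every 20 min.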

[2] = test system: acpP mRNA in CRAB AC44 strain; assay: Real-time RT-PCR of target mRNA; conditions: AC44, 1 h treatment, normalised to 16S rRNA, against untreated control
Protocol: as §1, §2, §3

Row | Substance | reduction in ftsZ mRNA [1] | MIC, AC4 (CRAB strain AC4) [µM] | reduction in the level of the acpP mRNA [2] [fold]
1 | H-(KFF)3K-eg1-GAGGCCATGAC-NH2 (antisense; N-terminal (KFF)3K-eg1 peptide, C-terminal amide, backbone not given here, further chemistry not given here) [PNA 5612, anti-ftsZ peptide-PNA conjugate, match, −3 to +8] | up to 60% | 8 | –
2 | H-(KFF)3K-eg1-TGATTTGCCAC-NH2 (antisense; N-terminal (KFF)3K-eg1 peptide, C-terminal amide, backbone not given here, further chemistry not given here) [PNA 5639, anti-acpP peptide-PNA conjugate, match, +1 to +11] | – | – | > 34
